Reference: US20040053896A1, “Pharmaceutically active compound” (priority 2000, published 2004)
Like-named read-outs stand apart in the source and are kept apart here.

Legend:
rat hepatocytes = assay: Cytotoxicity assay, chromium-51 leakage from monolayer cultures; format: cell-based; conditions: rat hepatocyte monolayers, 0.012M test material, mean +/- SD, n=5; control 37.61+/-1.56%
Description: Activities of supernatants and cells were measured. Chromium-51 leakage is expressed as a percentage of the total activity (medium+cells). Values are mean +/− SD [n=5]. *=P<0.001 CL(CBZ)/CL(CBZ)-Dox and a control (no material added after incubation with chromium-51).

[1] = system: 12 human tumour cell lines; assay: Antiproliferative activity in vitro, propidium iodide DNA content; format: cell-based; conditions: for mean IC70: mean over 12 human tumour cell lines, 4 days continuous exposure
Description: Cholyl-lysyl-doxorubicin (VIII) was investigated for antiproliferative activity in vitro in 12 human tumour cell lines (including the large cell lung carcinoma H460, the mammary carcinoma cell line MCF7, the uterus carcinoma cell line UXF 1138L and the large cell lung carcinoma LXFL 529L), and was compared to free doxorubicin and cholic acid as controls. 5-20.000 cells/well were plated into 96 wells. After 24 hours, the compounds were added in dose levels ranging from 3 nM to 30 μM (cholyl-lysyl-doxorubicin and cholic acid) and from 0.3 nM to 3 μM (doxorubicin), respectively.

HepG2 cells = assay: In vitro toxicity test by in situ end labelling (ISEL), % of dead cells; format: cell-based; conditions: 4 h incubation
Description: Cholyl-lysyl-doxorubicin (VIII) synthesised as described above was subjected to cytotoxicity tests in comparison with free doxorubicin and free cholate using in situ end labelling which enables semi-quantitative measure of apoptosis and necrosis.
HepG2 cells (Cobra American Type Culture Collection) in 24 well plates were used. Doxorubicin, cholate or cholyllysyldoxorubicin (in various amounts up to 0.86 μM) was added in triplicate and incubated for 4 h. The cells were trypsinized off from the well plates, cytospun, and then frozen.
In order to measure cell viability, sections were warmed up to room temperature for 30 minutes, then fixed in acetone for 10 minutes, and then wax was introduced around cells.
An in situ end labelling (ISEL) positive mixture was made up which included buffer (1 ml), dATP (1 μl), dCTP (1 μl), dGTP (1 μl), DiglldUTP (1 μl) and Klenow DNA polymerase (4 μl), and an in situ end labelling negative mixture of buffer (1 ml), dATP (1 μl), dCTP (1 μl), dGTP (1 μl), Digll, 2dUTP and water. (4 μl) was also made up. To each cytospin and coverslip was added 60 μl of the ISEL positive mixture or negative mixture. These were then floated in a water bath at 37° C. for 1 h. The coverslips were then removed and washed 3×5 mins in distilled water, followed by washing in TBS pH 7.5 for 5 mins. Anti digoxigen Alkaline phosphatase diluted 1:200 TBS was added and incubated for 1 h at room temperature and then washed in TBS pH 7.5 for 2.5 mins, followed by further washing in TBS pH 8.2 for another 2.5 mins. A substrate mixture was then made up to include naphthol phosphate (10 mg), NN-dimethylformamide (1 ml), Tris pH 8.2 (49) IM Levamasole (50 μl) and Fast blue (50 mg).
The substrate mixture was added to each cytospin and allowed to develop for 15 mins followed by washing in distilled water and then mounted.

[2] = Percentage of dose in liver, heart, urine and blood at 60 min
Description: Further tests were performed to estimate the percentage of the dose of the compounds being tested in the liver, heart, urine and blood of Wistar rats.

[3] = for Cumulative biliary excretion, Mean % Dose: Wistar rats; for Biliary excretion, mean % of radioactivity in the dose administered: bolus via jugular vein, 14C-Dox 1 mg/300 μl or 14C-Cpd VIII 2 mg/300 μl, n=6
Solubility in solvents = format: physicochemical
[4] = Wistar rats, 60 min after injection

SMILES | Chromium-51 leakage as a percentage of the total activity (medium+cells) (rat hepatocytes) | Mean % of dead cells (HepG2 cells; 0.03 μM) | Mean % of dead cells (HepG2 cells; 0.06 μM) | Mean % of dead cells (HepG2 cells; 0.12 μM) | Mean % of dead cells (HepG2 cells; 0.86 μM) | Percentage of dose at 60 min, Mean % dose, Urine [2, 4] | mean IC70 [1] | Cumulative biliary excretion, Mean % Dose ([3]; cumulative to 0 min) | Cumulative biliary excretion, Mean % Dose ([3]; cumulative to 10 min) | Cumulative biliary excretion, Mean % Dose ([3]; cumulative to 20 min) | Cumulative biliary excretion, Mean % Dose ([3]; cumulative to 30 min) | Cumulative biliary excretion, Mean % Dose ([3]; cumulative to 40 min) | Cumulative biliary excretion, Mean % Dose ([3]; cumulative to 50 min) | Cumulative biliary excretion, Mean % Dose ([3]; cumulative to 60 min) | Biliary excretion, mean % of radioactivity in the dose administered ([3]; bile aliquot at 10 min) | Biliary excretion, mean % of radioactivity in the dose administered ([3]; bile aliquot at 20 min) | Biliary excretion, mean % of radioactivity in the dose administered ([3]; bile aliquot at 30 min) | Biliary excretion, mean % of radioactivity in the dose administered ([3]; bile aliquot at 40 min) | Biliary excretion, mean % of radioactivity in the dose administered ([3]; bile aliquot at 50 min) | Biliary excretion, mean % of radioactivity in the dose administered ([3]; bile aliquot at 60 min) | other results
CC(CCC(=O)NC(CCCCNC(=O)OCc1ccccc1)C(=O)O)C1CCC2C3C(O)CC4CC(O)CCC4(C)C3CC(O)C12C (centres unmarked) [CL(CBZ), Cholyllsine-N-ε-CBZ] | 49.01+/−2.57% |  |  |  |  |  |  |  |  |  |  |  |  |  |  |  |  |  |  |  | 
COc1cccc2c1C(=O)c1c(O)c3c(c(O)c1C2=O)CC(O)(C(=O)CO)CC3OC1CC(NC(=O)C(CCCCNC(=O)OCc2ccccc2)NC(=O)CCC(C)C2CCC3C4C(O)CC5CC(O)CCC5(C)C4CC(O)C23C)C(O)C(C)O1 (centres unmarked) [CL(CBZ)-Dox, CholyllysylCBZDoxorubicin] | 36.45+/−3.77% |  |  |  |  |  |  |  |  |  |  |  |  |  |  |  |  |  |  |  | 
C[C@H](CCC(=O)O)[C@H]1CC[C@H]2[C@@H]3[C@H](O)C[C@@H]4C[C@H](O)CC[C@]4(C)[C@H]3C[C@H](O)[C@]12C [Cholate, cholic acid] |  | 1% | 0% | 1.8% | 1% |  |  |  |  |  |  |  |  |  |  |  |  |  |  |  | antitumour activity in vitro ([1]; 12 human tumour cell lines, 3 nM to 30 μM, 4 days exposure): no antitumour activity
COc1cccc2c1C(=O)c1c(O)c3c(c(O)c1C2=O)C[C@@](O)(C(=O)CO)C[C@@H]3O[C@H]1C[C@H](NC(=O)[C@H](CCCCN)NC(=O)CC[C@@H](C)[C@H]2CC[C@H]3[C@@H]4[C@H](O)C[C@@H]5C[C@H](O)CC[C@]5(C)[C@H]4C[C@H](O)[C@]23C)[C@H](O)[C@H](C)O1 [Compound (VIII), Cholyl-Lysyl-Doxorubicin] |  | 7.6% | 10.8% | 20.5% | 96.6% | 2.2 % dose | 1.3 µM | 0 % Dose | 41.7 % Dose | 61.7 % Dose | 69.7 % Dose | 75.3 % Dose | 79.3 % Dose | 81.8 % Dose | 41.7% | 20% | 8% | 5.6% | 4% | 2.5% | Percentage of dose at 60 min, Mean % dose, Blood ([2]; Wistar rats, blood, 60 min after injection): 8.9 % dose; Percentage of dose at 60 min, Mean % dose, Heart ([2]; Wistar rats, heart, 60 min after injection): 0 % dose; Percentage of dose at 60 min, Mean % dose, Liver ([2]; Wistar rats, liver, 60 min after injection): 14.7 % dose; Percentage of dose at 60 min, Mean % dose, Total ([2]; Wistar rats, sum of liver, heart, urine and blood, 60 min): 25.8 % dose; Biliary excretion, mean % of radioactivity in the dose administered ([3]; time 0 min): 0%; Solubility in non-polar solvents (Solubility in solvents; non-polar solvents such as ethoxyethane): insoluble; Solubility in water, methanol and ethanol (Solubility in solvents; water, methanol and ethanol): soluble; Mean % of dead cells (HepG2 cells; 0.00 μM): 3.3%; Mean % of dead cells (HepG2 cells; 0.45 μM): 49%
COc1cccc2c1C(=O)c1c(O)c3c(c(O)c1C2=O)C[C@@](O)(C(=O)CO)C[C@@H]3O[C@H]1C[C@H](N)[C@H](O)[C@H](C)O1 [Doxorubicin, doxorubicin] |  | 9.4% | 14.9% | 28.9% | 100% | 4 % dose | 0.7 µM | 0 % Dose | 2.3 % Dose | 7 % Dose | 9.6 % Dose | 11.7 % Dose | 12.7 % Dose | 13.5 % Dose | 2.3% | 4.7% | 2.6% | 2.4% | 1% | 0.8% | Percentage of dose at 60 min, Mean % dose, Blood ([2]; Wistar, rat, in vivo, 60 min): 74.7 % dose; Percentage of dose at 60 min, Mean % dose, Heart ([2]; Wistar, rat, in vivo, 60 min): 10.8 % dose; Percentage of dose at 60 min, Mean % dose, Liver ([2]; Wistar, rat, in vivo, 60 min): 1.9 % dose; Biliary excretion, mean % of radioactivity in the dose administered ([3]; time 0 min): 0%; Mean % of dead cells (HepG2 cells; 0.45 μM): 50%
